The values that follow come from publication PMC11267536, “Gonococcal Mimitope Vaccine Candidate Forms a Beta-Hairpin Turn and Binds Hydrophobically to a Therapeutic Monoclonal Antibody” (JACS Au, 2024).

Experiment [1] has as its target mAb 2C7. In words: STD NMR titration of CP2 into mAb 2C7. The experiment is classed as binding, Human-mouse chimeric. The following applies: STD-AF of methyl signals, one-site Langmuir model, saturation time 2 s, CP2 0.17-1.70 mM, 50 mM phosphate pH 7.4, H2O:D2O 90:10, 288 and 298 K, read-out: apparent equilibrium dissociation constant (KD). The procedure: Chimeric mAb 2C7 and the sequence for the VH and VL regions of murine mAb 2C7 have been described previously.[18] Human-mouse chimeric mAb 2C7 was expressed in ExpiCHO cells and purified by affinity chromatography of tissue culture supernatants using Protein A/G agarose. Chimeric Fab 2C7 was expressed in CHO cells and purified by affinity chromatography with an anti-CH1 antibody (LakePharma).
(§1) NMR spectra were recorded on a Bruker AVANCE NEO 600-MHz equipped with a cryo probe, and data acquisition and processing were performed with TOPSPIN 4.1.1 software. Samples were prepared in H2O:D2O (90:10) buffered with 50 mM phosphate at pH 7.4, using 3 mm NMR tubes. NMR spectra were acquired using antibody concentrations of 10–20 μM, a peptide concentration of 1 mM, and an antibody:peptide ratio from 1:18 to 1:50, depending on the NMR experiments, and temperatures of 288 and 298 K; 0.05 mM amount of deuterated trimethylsilylpropanoic acid (TSP) was used as an internal standard.
STD NMR experiments were acquired with 32,000 data points and zero-filled up to 64,000 data points prior to processing. The protein resonances were selectively irradiated using 40 Gauss pulses with a length of 50 ms, setting the off-resonance pulse frequency at 40 ppm and the on-resonance pulse at 5.5 ppm. An excitation sculpting with gradient pulses (esgp) was applied for the suppression of water signals. […]

Experiment [2] relates to mAb 2C7. Description: Isothermal titration calorimetry (ITC). The class given is binding, Human-mouse chimeric. The conditions noted are these: 20 °C. How it is done:
Isothermal titration calorimetry (ITC) experiments were carried out at 20 °C by using a MicroCal PEAQ-ITC instrument. mAb and peptide CP2 were both dialyzed against PBS pH 7.4 to avoid buffer mismatch between solutions. A solution of mAb with a concentration of 30 μM was loaded into the cell, and for each measurement, CP2 was added to the antibody solution through a microsyringe under a stirrer speed of 750 rpm. The titration was performed by adding 2 μL from a 1.67 mM CP2 solution for 19 injections using a time duration of 150 s. The data were analyzed and fitted by using the one-binding site model. The standard thermodynamic parameters of equilibrium were calculated by the following equation[45]: [drawing 2] 2 where ΔG is the Gibb’s free energy, Ka is the equilibrium constant, R is the gas constant, T is the temperature in kelvin, ΔH is the enthalpy change, and ΔS is the entropy change.

The test system of experiment [3] is mAb 2C7. In words: WaterLOGSY, CPMG and 1D NH chemical shift perturbation NMR. The experiment is classed as binding, Human-mouse chimeric. The procedure: as §1
The waterLOGSY experiments were performed on CP2 in the absence and presence of the mAb, using a conventional 1D NOE-ePHOGSY pulse sequence[36] provided in the Bruker library (ephogsygpno.2). The bulk water was selectively irradiated by 1D NOESY, and the solvent suppression was modified into a double pulsed-field gradient (DPFG) perfect-echo.[37] A mixing time of 2s was used in order to compare the WaterLOGSY experiment with the STD NMR experiment.
A mixture of 20 μM mAb2C7 and 1 mM CP2 peptide was prepared in deuterated phosphate saline buffer pH 7.4. Pseudo 2D experiments (cpmg_esgp2d) were used for detecting T2 spin–spin relaxation measurements. Data were analyzed by fitting the equation f(t) = Io × exp (−t/T) using Dynamics Center 2.7.1.

Another experiment concerns gonococcal colonization. The following applies: cited from earlier work. The text has this:
The spread of multidrug-resistant strains of Neisseria gonorrhoeae, the etiologic agent of gonorrhea, represents a global health emergency. Therefore, the development of a safe and effective vaccine against gonorrhea is urgently needed. […] Furthermore, we identified a peptide, cyclic peptide 2 (CP2) that mimicked the 2C7 LOS epitope, elic ... || Neisseria gonorrhoeae is a leading cause of sexually transmitted infections, which include urethritis, cervicitis, pharyngitis, locally invasive (epididymitis and salpingo-oophritis) and disseminated infections, and in rare cases, meningitis and endocarditis.[1] Infections in women are frequently asymptomatic, which augments the spread of bacteria among populations. Further, strains have emerged that are resistant to multiple antibiotics, which have the potential to lead to untreatable infections. Thus, the development of vaccines and novel therapeutics, including nonantibiotic approaches, is ... || Gonococcal lipooligosaccharide (LOS) is the most abundant component of the outer membrane. Antibodies against LOS can elicit complement-dependent bacterial killing, and therefore, LOS has been pursued as a vaccine candidate (reviewed in ref ([12])). A murine anti-LOS monoclonal antibody (mAb) 2C7 was isolated almost four decades ago.[13],[14] […]

The next experiment relates to gonococci. The conditions noted are these: ref previous studies, cited from earlier work. From the text:
The spread of multidrug-resistant strains of Neisseria gonorrhoeae, the etiologic agent of gonorrhea, represents a global health emergency. Therefore, the development of a safe and effective vaccine against gonorrhea is urgently needed. […] Furthermore, we identified a peptide, cyclic peptide 2 (CP2) that mimicked the 2C7 LOS epitope, elic ... || Neisseria gonorrhoeae is a leading cause of sexually transmitted infections, which include urethritis, cervicitis, pharyngitis, locally invasive (epididymitis and salpingo-oophritis) and disseminated infections, and in rare cases, meningitis and endocarditis.[1] Infections in women are frequently asymptomatic, which augments the spread of bacteria among populations. Further, strains have emerged that are resistant to multiple antibiotics, which have the potential to lead to untreatable infections. […] Therefore, a random peptide display library was used to identify a peptide, designated as PEP1, which bound mAb 2C7. […] Subsequently, PEP1 was covalently cyclized to yield CP2 and configured as a tetramer (designated tetra-MAP CP2 or TMCP2). TMCP2 adjuvanted wit ...

A further experiment deals with gonococcal strains. The following applies: cited from earlier work. The text has this: Gonococcal lipooligosaccharide (LOS) is the most abundant component of the outer membrane. Antibodies against LOS can elicit complement-dependent bacterial killing, and therefore, LOS has been pursued as a vaccine candidate (reviewed in ref ([12])). A murine anti-LOS monoclonal antibody (mAb) 2C7 was isolated almost four decades ago.[13],[14] 2C7 recognizes an LOS epitope that comprises lactose from heptose (Hep) II; lactose from HepI or GlcNAc may also contribute to the 2C7 epitope (see Supporting Information, Scheme S1). This mAb reacted with 94% of 68 gonococcal strains examined in the cerv ...

Experiment [4] deals with human-mouse chimeric mAb 2C7 (mouse | human | mouse VL, human constant region). Description: ITC; 20 °C, PBS pH 7.4; 30 uM mAb in the cell, 1.67 mM CP2 in the syringe, 19 injections of 2 uL; one-site model.
The target is the same in experiment [5]. Description: NMR titration; STD NMR; CP2 (0.17 to 1.70 mM) titrated into a solution of mAb; 50 mM phosphate pH 7.4, H2O:D2O 90:10; saturation time 2 s; one-site Langmuir isotherm; apparent.

Values joined by “and” are separate entries in the source; they are usually repeats but may differ in a detail not shown here. Equal entries are not always repeated. Bridges are numbered along the chain shown (N, C = ends). Bounds are passed on as bounds.

In the case of “Br-Ac-Gly-Pro-Ile-Pro-Val-Leu-Asp-Glu-Asn-Gly-Leu-Phe-Ala-Pro-Gly-Pro-Cys-Lys-OH (sidechain bridge or staple) [CP2]”, the Kd at mAb 2C7 [1] came to 61 µM. Besides, in the experiment on mAb 2C7 [2] (PBS pH 7.4), the ΔG is -6.24 kcal/mol; the “ΔG (exothermic process)” value is under 0; the ΔH was -1.71 ± 0.0707 kcal/mol and -1.71 kcal/mol; the “−TΔS” value is -4.52 kcal/mol. Further, the “binding stoichiometry N (sites)” value in the experiment with mAb 2C7 [2] (one-site binding model, PBS pH 7.4) is 1.89 ±4.4e-2 and 1.89. The Kd on mAb 2C7 [2] (one-site binding model, PBS pH 7.4, mAb 30 μM, 1.67 mM CP2, 19 injections of 2 μL) is 23 µM. Besides, in the experiment with mAb 2C7 [3] (20 μM mAb 2C7, 1 mM CP2, deuterated phosphate saline buffer pH 7.4), the “transverse relaxation time T2 (CPMG)” value is given as “indicative of complex formation”. Further, the WaterLOGSY binding result in the experiment on mAb 2C7 [3] (change in peak phase from free to bound state, mixing time 2 s) is reported as “the change in the peak phase passing from the free to the bound state is indicative of binding”. Besides, the “1D NH chemical shift perturbation” value with mAb 2C7 [3] (mixture of mAb 2C7 with CP2) was “a few chemical shift perturbations”. Also, in the experiment on gonococcal colonization (mouse vaginal colonization model, ref previous studies), the active protection result is recorded as “actively protected in a mouse vaginal colonization model”. In addition, the bactericidal antibodies result with gonococci (mice) is reported as “elicited bactericidal antibodies in mice”.

B1: Murine mAb 2C7: murine anti-LOS monoclonal antibody 2C7 (antibody, V domains shown)
VH: EVQLQQSGPELVKPGSSVKISCKGSGYTFTDYNMEWVKQSHGKSLEWIGVINPNNRFTSYNQNFRGKATLTVDKSSSTAYMDLRSLTSEDSAVYFCAGSRWYQYDYWGQGTTLTVSS
VL: QVVVTQESALTTSPGETVTLTCRSSTGAVTTSNYANWVQEKPDHLFTGLIGGINNRAPGVPARFSGSLIADKAALTITGAQTEDEAIYFCALWYSNHWVFGGGTKLTVL
Regarding B1, in the experiment on gonococcal strains (68 gonococcal strains examined in the cervical secretions of women), the gonococcal strains recognized is listed as 94%. Moreover, the clinical isolates recognized in the experiment on gonococcal strains (75 minimally passaged clinical isolates, Nanjing, China) is on record as 100%. In addition, the “duration and burden of gonococcal colonization” value with gonococcal colonization (mouse vaginal model) was “decreased the duration and burden of gonococcal colonization”. Moreover, in the experiment with gonococci (against gonococci), the complement-dependent bactericidal activity entry is “elicits complement-dependent bactericidal activity against gonococci”.
On to GPIPVLDENGLFAPGPCK-OH (bridge N-17; not fully specified (N-terminus, bridges)) [cyclic peptide 2 (CP2)], for which, in experiment [4], the Kd worked out at 23 µM, the dH is -1.71 kcal/mol and the stoichiometry N stood at 1.89 CP2 per mAb. The Kd in experiment [5] was found to be 61 µM.
